Data taken from ChEMBL document CHEMBL4007384, “Synthesis and optimization of furano[3,2-d]pyrimidines as selective spleen tyrosine kinase (Syk) inhibitors” (Bioorg Med Chem Lett, 2016).

Tests used:
[1] = Unbound clearance in rat microsomes; format: ADME, Microsome
[2] = Solubility in pH 5 FeSSIF at 0.2 mg sonicated for 10 mins followed by incubation for 2 days by HPLC analysis; format: physicochemical
[3] = Unbound clearance in human microsomes; format: ADME, Microsome
[4] = Volume of distribution at steady state in rat at 1 mg/kg, iv; format: ADME, organism-based; conditions: in vivo, read-out: Vdss
[5] = Half life in rat at 1 mg/kg, iv; format: ADME, organism-based; conditions: in vivo
[6] = AUC in rat at 1 mg/kg, po; format: ADME, organism-based; conditions: in vivo
[7] = Clearance in rat at 1 mg/kg, iv; format: ADME, organism-based; conditions: in vivo
Rattus norvegicus [8] = assay: Toxicity in rat model of collagen-induced arthritis at 0.3 to 30 mg/kg, po bid for 8 days; format: organism-based; conditions: in vivo, 192 h
Rattus norvegicus [9] = assay: Antiarthritic activity in rat model of collagen-induced arthritis assessed as inhibition of paw swelling at 10 mg/kg, bid for 8 days relative to control; format: functional; conditions: 192 h
[10] = AUC in dog at 1 mg/kg, po; format: ADME, organism-based, Canis lupus familiaris; conditions: in vivo
Rattus norvegicus [11] = assay: Antiarthritic activity in po dosed rat model of collagen-induced arthritis assessed as inhibition of paw swelling administered bid for 8 days measured on day 8 up to 12 hrs; format: functional
[12] = target: Voltage-gated inwardly rectifying potassium channel KCNH2 (Homo sapiens, UniProt Q12809); assay: Inhibition of human ERG
[13] = Cmax in dog at 1 mg/kg, po; format: ADME, organism-based, Canis lupus familiaris; set-up: dose 1 mg/kg, route oral; conditions: in vivo
Rattus norvegicus [14] = assay: Antiarthritic activity in rat model of collagen-induced arthritis assessed as inhibition of paw swelling at 0.3 mg/kg, bid for 8 days relative to control; format: functional; conditions: 192 h
[15] = Clearance in dog at 1 mg/kg, iv; format: ADME, organism-based, Canis lupus familiaris; conditions: in vivo
[16] = Half life in dog at 1 mg/kg, iv; format: ADME, organism-based, Canis lupus familiaris; conditions: in vivo
[17] = Oral bioavailability in dog at 1 mg/kg; format: ADME, organism-based, Canis lupus familiaris; conditions: in vivo
Rattus norvegicus [18] = assay: Antiarthritic activity in rat model of collagen-induced arthritis assessed as inhibition of paw swelling at 1 mg/kg, bid for 8 days relative to control; format: functional; conditions: 192 h
Rattus norvegicus [19] = assay: Antiarthritic activity in rat model of collagen-induced arthritis assessed as inhibition of paw swelling at 3 mg/kg, bid for 8 days relative to control; format: functional; conditions: 192 h
[20] = Oral bioavailability in rat at 1 mg/kg; format: ADME, organism-based; conditions: in vivo
[21] = Cmax in rat at 1 mg/kg, po; format: ADME, organism-based; set-up: dose 1 mg/kg, route oral; conditions: in vivo
Cytochrome P450 3A4 = Cytochrome P450 3A4 (Homo sapiens, UniProt P08684); assay: Time-dependent inhibition of CYP3A4 in human liver microsomes at 10 to 50 uM; format: ADME
Rattus norvegicus [22] = assay: Antiarthritic activity in po dosed rat model of collagen-induced arthritis assessed as inhibition of paw swelling administered bid for 8 days; conditions: 192 h
Rattus norvegicus [23] = assay: Antiarthritic activity in rat model of collagen-induced arthritis assessed as inhibition of paw swelling at 30 mg/kg, bid for 8 days relative to control; format: functional; conditions: 192 h
[24] = Cytotoxicity against human HepG2 cells; format: cell-based
[25] = Volume of distribution at steady state in dog at 1 mg/kg, iv; format: ADME, organism-based, Canis lupus familiaris; conditions: in vivo, read-out: Vdss
[26] = target: T1, Tyrosine-protein kinase SYK (Homo sapiens, UniProt P43405)
Description: Inhibition of Syk (unknown origin) after 60 mins by TR-FRET assay

[27] = target: T2, Dual specificity protein kinase TTK (Homo sapiens, UniProt P33981); assay: Inhibition of TTK (unknown origin) after 60 mins by TR-FRET assay
T2 sequence (P33981 whole entry): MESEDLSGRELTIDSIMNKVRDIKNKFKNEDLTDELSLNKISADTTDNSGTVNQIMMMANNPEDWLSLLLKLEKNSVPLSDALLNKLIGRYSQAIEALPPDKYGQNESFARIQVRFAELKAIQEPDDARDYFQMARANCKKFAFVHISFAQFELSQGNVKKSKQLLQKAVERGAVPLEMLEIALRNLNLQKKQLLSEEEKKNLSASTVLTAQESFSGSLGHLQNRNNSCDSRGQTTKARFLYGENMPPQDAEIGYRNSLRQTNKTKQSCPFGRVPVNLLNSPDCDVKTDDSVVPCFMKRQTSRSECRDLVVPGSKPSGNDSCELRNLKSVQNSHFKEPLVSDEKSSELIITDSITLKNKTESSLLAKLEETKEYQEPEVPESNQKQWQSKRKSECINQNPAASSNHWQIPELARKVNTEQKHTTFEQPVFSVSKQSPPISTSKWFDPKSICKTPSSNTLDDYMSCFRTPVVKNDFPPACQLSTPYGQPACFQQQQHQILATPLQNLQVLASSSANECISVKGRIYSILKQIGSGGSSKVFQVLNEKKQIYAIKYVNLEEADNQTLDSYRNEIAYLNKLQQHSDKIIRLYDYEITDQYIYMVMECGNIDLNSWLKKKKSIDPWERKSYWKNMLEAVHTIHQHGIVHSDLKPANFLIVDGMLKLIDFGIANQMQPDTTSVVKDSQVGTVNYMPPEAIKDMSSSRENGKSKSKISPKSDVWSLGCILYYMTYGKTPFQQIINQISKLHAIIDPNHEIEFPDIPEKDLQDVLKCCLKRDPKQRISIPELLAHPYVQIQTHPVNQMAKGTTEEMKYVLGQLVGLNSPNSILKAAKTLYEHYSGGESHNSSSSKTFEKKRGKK

[28] = target: T3, Serine/threonine-protein kinase TAO2 (Homo sapiens, UniProt Q9UL54); assay: Inhibition of TAOK2 (unknown origin) after 60 mins by TR-FRET assay
T3 sequence (Q9UL54 whole entry): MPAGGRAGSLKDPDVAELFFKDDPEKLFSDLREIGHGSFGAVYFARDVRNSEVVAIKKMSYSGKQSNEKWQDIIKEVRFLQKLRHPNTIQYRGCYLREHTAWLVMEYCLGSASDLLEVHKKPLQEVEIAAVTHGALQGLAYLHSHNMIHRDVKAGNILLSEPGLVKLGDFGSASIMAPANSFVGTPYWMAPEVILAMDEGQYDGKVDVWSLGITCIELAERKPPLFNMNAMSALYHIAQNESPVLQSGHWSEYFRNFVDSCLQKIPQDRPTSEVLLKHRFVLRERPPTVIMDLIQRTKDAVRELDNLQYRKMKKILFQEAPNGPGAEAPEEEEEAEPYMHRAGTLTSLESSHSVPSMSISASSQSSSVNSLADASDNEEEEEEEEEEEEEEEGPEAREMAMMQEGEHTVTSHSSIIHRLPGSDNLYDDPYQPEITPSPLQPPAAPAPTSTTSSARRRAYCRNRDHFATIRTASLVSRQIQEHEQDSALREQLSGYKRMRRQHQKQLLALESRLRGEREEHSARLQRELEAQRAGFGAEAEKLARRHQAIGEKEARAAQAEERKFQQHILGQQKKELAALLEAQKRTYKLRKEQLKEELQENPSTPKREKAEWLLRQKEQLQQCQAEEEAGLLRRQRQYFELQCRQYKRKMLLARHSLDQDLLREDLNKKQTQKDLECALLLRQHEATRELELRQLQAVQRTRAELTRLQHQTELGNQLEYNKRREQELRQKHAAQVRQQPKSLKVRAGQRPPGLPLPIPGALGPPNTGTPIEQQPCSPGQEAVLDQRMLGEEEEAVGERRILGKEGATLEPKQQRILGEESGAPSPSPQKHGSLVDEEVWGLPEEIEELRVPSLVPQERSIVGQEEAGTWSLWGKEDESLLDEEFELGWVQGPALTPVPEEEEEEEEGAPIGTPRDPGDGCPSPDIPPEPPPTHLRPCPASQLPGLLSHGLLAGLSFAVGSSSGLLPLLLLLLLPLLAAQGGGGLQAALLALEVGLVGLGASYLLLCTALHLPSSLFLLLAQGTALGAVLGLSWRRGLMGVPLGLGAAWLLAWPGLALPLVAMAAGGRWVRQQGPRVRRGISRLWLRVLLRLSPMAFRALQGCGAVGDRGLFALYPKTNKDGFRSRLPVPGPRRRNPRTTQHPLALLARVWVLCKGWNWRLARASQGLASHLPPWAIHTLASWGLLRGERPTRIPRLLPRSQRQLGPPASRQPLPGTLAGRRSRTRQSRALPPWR

[29] = target: T1, Tyrosine-protein kinase SYK; remark: listed apart in the source
Description: Inhibition of C-terminal His-tagged Syk catalytic domain (356 to 635 residues) (unknown origin) using biotin-TYR1 as substrate after 60 mins by TR-FRET assay

[30] = target: T4, Serine/threonine-protein kinase Nek2 (Homo sapiens, UniProt P51955); assay: Inhibition of NEK2 (unknown origin) after 60 mins by TR-FRET assay
T4 sequence (P51955 whole entry): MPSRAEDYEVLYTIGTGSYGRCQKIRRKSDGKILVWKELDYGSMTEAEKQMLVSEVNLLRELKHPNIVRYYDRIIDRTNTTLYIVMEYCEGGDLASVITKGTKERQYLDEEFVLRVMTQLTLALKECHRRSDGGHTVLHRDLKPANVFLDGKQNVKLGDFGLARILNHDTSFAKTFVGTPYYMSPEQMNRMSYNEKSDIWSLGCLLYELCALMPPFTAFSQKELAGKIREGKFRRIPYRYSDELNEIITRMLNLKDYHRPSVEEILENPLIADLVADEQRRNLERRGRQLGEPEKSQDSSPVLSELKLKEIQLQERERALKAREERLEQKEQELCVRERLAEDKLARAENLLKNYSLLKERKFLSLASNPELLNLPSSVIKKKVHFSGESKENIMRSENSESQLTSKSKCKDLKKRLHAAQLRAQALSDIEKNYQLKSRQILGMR

[31] = target: Serine/threonine-protein kinase B-raf (Homo sapiens, UniProt P15056); assay: Inhibition of BRAF (unknown origin) after 60 mins by TR-FRET assay
[32] = target: cGMP-dependent protein kinase 1 (Homo sapiens, UniProt Q13976); assay: Inhibition of PKG1A (unknown origin) after 60 mins by TR-FRET assay
[33] = target: Rho-associated protein kinase 2 (Homo sapiens, UniProt O75116); assay: Inhibition of ROCK2 (unknown origin) after 60 mins by TR-FRET assay
[34] = Inhibition of CDK11 (unknown origin) after 60 mins by TR-FRET assay; set-up: species or system Homo sapiens

Cytochrome P450 3A4, sequence (P08684 whole entry): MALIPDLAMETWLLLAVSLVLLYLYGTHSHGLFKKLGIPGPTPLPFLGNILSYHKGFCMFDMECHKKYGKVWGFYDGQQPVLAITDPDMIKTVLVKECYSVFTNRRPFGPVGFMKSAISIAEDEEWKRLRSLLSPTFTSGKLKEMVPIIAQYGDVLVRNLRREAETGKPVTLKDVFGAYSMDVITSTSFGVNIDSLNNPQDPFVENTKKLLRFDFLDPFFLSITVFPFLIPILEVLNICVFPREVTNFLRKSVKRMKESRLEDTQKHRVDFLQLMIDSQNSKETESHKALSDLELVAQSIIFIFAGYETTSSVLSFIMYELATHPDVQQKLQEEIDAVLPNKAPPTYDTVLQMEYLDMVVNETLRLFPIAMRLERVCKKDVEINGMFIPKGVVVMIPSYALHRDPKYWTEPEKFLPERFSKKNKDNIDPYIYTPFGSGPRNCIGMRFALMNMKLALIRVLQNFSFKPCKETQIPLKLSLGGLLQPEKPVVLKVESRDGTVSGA
Serine/threonine-protein kinase B-raf, sequence (P15056 whole entry): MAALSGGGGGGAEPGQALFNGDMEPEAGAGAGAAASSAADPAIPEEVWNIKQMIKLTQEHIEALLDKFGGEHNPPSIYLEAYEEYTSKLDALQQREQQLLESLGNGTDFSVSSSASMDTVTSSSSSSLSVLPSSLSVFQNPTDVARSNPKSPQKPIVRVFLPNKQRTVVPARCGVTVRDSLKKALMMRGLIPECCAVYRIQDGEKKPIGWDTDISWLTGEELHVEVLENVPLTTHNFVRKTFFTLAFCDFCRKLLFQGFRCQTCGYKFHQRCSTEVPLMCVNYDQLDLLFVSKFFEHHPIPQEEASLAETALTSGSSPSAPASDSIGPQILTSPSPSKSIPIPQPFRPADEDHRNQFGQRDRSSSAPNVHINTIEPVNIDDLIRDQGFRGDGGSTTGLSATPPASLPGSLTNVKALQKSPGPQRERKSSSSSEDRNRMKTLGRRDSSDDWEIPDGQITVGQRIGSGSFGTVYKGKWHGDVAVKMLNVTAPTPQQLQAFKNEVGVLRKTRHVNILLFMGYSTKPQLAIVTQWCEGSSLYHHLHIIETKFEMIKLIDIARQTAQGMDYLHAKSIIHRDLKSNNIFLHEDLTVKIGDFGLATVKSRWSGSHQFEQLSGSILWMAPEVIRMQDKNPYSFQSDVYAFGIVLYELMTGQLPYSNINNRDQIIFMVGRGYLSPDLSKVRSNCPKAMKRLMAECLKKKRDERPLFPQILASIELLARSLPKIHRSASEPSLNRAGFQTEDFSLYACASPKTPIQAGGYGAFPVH
cGMP-dependent protein kinase 1, sequence (Q13976 whole entry): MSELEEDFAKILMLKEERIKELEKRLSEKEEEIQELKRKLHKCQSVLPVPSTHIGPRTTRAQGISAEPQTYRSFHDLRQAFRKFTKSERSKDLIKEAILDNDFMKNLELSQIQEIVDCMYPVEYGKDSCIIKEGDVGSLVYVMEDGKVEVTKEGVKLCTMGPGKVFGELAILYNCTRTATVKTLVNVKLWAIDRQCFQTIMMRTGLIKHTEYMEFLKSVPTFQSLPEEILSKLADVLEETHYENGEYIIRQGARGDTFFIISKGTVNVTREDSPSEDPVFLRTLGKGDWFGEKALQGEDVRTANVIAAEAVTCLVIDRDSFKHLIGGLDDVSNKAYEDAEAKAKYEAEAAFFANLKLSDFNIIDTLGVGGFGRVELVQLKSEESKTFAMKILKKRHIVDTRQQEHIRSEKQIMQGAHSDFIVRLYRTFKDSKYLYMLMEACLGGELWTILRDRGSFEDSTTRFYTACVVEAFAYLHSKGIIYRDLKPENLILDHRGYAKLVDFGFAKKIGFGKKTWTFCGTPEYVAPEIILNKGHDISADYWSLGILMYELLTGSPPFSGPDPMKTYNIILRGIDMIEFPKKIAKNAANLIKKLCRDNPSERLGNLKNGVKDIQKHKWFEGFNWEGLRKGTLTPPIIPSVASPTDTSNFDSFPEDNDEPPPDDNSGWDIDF
Voltage-gated inwardly rectifying potassium channel KCNH2, sequence (Q12809 whole entry): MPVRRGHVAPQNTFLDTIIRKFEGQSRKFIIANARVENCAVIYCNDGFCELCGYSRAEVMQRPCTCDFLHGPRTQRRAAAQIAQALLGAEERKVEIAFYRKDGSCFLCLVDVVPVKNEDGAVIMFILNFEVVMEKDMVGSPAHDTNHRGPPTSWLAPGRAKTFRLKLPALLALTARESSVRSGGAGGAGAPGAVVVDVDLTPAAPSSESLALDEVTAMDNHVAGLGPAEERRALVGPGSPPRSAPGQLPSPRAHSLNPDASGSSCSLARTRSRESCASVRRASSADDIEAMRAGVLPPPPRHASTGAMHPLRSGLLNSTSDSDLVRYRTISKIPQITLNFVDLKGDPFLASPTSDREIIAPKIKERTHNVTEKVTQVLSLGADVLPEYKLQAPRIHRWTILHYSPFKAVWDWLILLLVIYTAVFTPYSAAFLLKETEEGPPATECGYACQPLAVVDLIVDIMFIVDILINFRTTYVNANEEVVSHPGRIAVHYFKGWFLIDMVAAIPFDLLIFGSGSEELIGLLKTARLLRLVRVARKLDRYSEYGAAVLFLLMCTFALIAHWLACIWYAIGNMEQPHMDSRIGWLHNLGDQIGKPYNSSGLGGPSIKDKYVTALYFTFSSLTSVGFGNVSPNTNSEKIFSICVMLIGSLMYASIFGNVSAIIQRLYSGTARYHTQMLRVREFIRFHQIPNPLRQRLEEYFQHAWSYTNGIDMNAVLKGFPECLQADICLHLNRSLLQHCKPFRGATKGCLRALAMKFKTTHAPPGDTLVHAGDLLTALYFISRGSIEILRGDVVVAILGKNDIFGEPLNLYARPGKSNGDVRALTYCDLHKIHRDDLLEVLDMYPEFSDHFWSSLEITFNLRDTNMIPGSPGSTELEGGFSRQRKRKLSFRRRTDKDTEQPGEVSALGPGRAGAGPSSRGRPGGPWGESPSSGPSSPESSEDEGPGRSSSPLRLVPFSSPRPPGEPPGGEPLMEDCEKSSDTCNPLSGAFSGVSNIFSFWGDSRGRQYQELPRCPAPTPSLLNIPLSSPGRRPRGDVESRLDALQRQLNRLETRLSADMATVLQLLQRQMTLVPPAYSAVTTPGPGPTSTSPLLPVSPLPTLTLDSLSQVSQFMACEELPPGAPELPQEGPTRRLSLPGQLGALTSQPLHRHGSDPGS
Rho-associated protein kinase 2, sequence (O75116 whole entry): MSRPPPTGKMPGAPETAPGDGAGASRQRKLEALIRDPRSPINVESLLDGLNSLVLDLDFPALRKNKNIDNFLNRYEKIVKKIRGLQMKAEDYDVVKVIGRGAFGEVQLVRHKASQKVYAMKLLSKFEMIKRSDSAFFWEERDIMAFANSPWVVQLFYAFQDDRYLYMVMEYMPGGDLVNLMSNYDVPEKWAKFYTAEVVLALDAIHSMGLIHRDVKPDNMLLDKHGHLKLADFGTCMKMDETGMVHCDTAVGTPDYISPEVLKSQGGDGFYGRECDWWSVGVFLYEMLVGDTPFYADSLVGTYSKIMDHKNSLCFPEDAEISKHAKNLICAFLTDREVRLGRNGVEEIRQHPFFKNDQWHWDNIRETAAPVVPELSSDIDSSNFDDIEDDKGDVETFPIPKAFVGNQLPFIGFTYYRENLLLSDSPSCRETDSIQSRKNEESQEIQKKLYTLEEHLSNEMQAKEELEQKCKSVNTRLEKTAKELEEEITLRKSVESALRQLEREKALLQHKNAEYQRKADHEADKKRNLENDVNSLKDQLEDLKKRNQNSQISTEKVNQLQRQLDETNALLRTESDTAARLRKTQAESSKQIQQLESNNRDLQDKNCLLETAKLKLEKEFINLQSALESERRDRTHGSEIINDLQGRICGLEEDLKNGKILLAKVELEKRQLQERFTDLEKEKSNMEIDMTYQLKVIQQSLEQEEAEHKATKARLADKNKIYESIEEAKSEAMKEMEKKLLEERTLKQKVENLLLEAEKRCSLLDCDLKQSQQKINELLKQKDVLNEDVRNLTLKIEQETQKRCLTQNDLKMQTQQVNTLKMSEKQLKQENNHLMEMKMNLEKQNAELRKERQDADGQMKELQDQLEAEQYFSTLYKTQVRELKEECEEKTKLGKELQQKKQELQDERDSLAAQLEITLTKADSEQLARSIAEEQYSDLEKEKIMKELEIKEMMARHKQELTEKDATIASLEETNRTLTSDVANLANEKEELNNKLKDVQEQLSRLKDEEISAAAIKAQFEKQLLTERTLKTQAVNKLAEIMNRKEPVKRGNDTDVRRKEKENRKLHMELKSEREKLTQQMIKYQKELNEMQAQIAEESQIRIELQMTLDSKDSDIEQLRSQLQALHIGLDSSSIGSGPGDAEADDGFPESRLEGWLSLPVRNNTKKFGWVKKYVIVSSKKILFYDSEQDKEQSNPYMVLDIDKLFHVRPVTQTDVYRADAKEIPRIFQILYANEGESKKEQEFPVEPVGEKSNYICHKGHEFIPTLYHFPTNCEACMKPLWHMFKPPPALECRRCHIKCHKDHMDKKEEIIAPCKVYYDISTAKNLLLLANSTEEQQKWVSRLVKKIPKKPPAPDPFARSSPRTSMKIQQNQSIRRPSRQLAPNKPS

## CCCNc1nc(Nc2ccc3c(c2)NC(=O)COC3(C)C)nc2ccoc12
[1]
  CL free: 373 mL/min/kg
[2]
  solubility at 48 h: > 200 µM
[3]
  CL free: 307 mL/min/kg

## CCNc1nc(Nc2ccc3c(c2)NC(=O)COC3(C)C)nc2ccoc12
[1]
  CL free: 318 mL/min/kg
[2]
  solubility at 48 h: > 67 µM
[3]
  CL free: 91.7 mL/min/kg

## O=C1CCc2ccc(Nc3nc(NCC(F)(F)F)c4occc4n3)cc2N1
[1]
  CL free: 365 mL/min/kg

## COC(=O)N[C@@H]1CC(C)(C)c2ccc(Nc3nc(NCC(F)F)c4occc4n3)cc2NC1=O
[4]
  Vd: 4.6 L/kg
[5]
  half-life: 2 h
[6]
  AUC: 180 ng·h/mL
[7]
  clearance: 28.3 mL/min/kg
Rattus norvegicus [8]
  Activity: Non-Toxic
Rattus norvegicus [9]
  inhibition in vivo at 10 mg/kg: 75%
[10]
  AUC: 2340 ng·h/mL
Rattus norvegicus [11]
  EAUC50: 3.9 µg·h/mL
[1]
  CL free: 177 mL/min/kg
[12]
  IC50: > 20000 nM
[2]
  solubility at 48 h: > 67 µM
[13]
  Cmax: 151 ng/mL
Rattus norvegicus [14]
  inhibition in vivo at 0.3 mg/kg: 21%
[3]
  CL free: < 38.3 mL/min/kg
[15]
  clearance: 2.83 mL/min/kg
[16]
  half-life: 9.9 h
[17]
  bioavailability: 40%
Rattus norvegicus [18]
  inhibition in vivo at 1 mg/kg: 21%
Rattus norvegicus [19]
  inhibition in vivo at 3 mg/kg: 28%
[20]
  bioavailability: 27%
[21]
  Cmax: 36 ng/mL
Cytochrome P450 3A4
  TDI: Not Active
Rattus norvegicus [22]
  ED50: 9 mg/kg
Rattus norvegicus [23]
  inhibition in vivo at 30 mg/kg: 95%
[24]
  IC20: > 10000 nM
[25]
  Vd: 2.3 L/kg

## CCCNC(=O)c1ccc(Nc2nc(NCC(F)(F)F)c3cc[nH]c3n2)cc1
[26]
  IC50: 8 nM
[27]
  IC50: 991 nM
[28]
  IC50: 529 nM
[29]
  IC50: 17 nM
[30]
  IC50: > 10000 nM
[31]
  IC50: > 10000 nM
[32]
  IC50: > 10000 nM
[33]
  IC50: 248 nM
[34]
  IC50: > 10000 nM

## CC1(C)CCC(=O)Nc2cc(Nc3nc(NC4CC4)c4occc4n3)ccc21
[1]
  CL free: 397 mL/min/kg
[3]
  CL free: 317 mL/min/kg
